“And” between values parts separate entries of the source, which are not always exact repeats. Equal values may be shown once. Where a name gives a salt, the structure may show the parent alone. Read-outs that look alike come from different tables or passages of the source.
Columns and labels:
[1] = test system: CCRF-CEM human T-cell acute lymphoblastic leukemia cell line; assay: XTT cytotoxicity (cell growth inhibition), CCRF-CEM
Method in brief: (§1)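 Suspension leukemic cells (CCRF-CEM, P388 and drug-resistant sublines kept under the selecting agent) were seeded at 5×10^4 cells/mL in RPMI-1640 with 10% FBS at 37 °C. After 72 h drug exposure in duplicate, PMS-XTT was added for 4 h. Absorbance was read at 450 and 630 nm.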

DC-3F/ADX = assay: cells; format: cell-based, hamster; conditions: DC3F/ADX, Table 3
Method in brief: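 Hamster lung fibroblast DC-3F sublines selected with actinomycin D (ADII moderate, ADX very strong MDR), maintained under selecting agent in RPMI 1640-10% FBS at 37° C. Monolayers exposed to six to seven drug concentrations in duplicate, TCA-fixed, stained with 0.4% SRB; absorbance 570 nm, analyzed by median-effect plot.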

[2] = test system: A549 Human Lung Carcinoma; assay: A549 xenograft; format: in vivo, nude mice; conditions: Q2D x 3: dEpoB 30 mg/kg 18 hr i.v. infusion, Taxol 15 mg/kg 6 hr infusion, VBL 2 and VP-16 25 mg/kg i.v. inj
CCRF-CEM/VM1 = assay: cells; format: cell-based, human
Method in brief: as §1

[3] = test system: PC-3 Human Prostate Carcinoma; assay: PC-3 xenograft; format: in vivo, nude mice; conditions: dEpoB 30 mg/kg 18 hr i.v. infusion, Taxol 16 mg/kg 6 hr infusion, VBL 2 and VP-16 25 mg/kg i.v. inj
[4] = test system: Human CCRF-CEM/VBL Xenograft; assay: CCRF-CEM/VBL xenograft in scid mice; format: in vivo, CB-17 scid mice
[5] = Homo sapiens, CCRF-CEM, 72 h, Table 1A, XTT
[6] = Homo sapiens, CCRF-CEM, Table 5, single determinations
[7] = Homo sapiens, CCRF-CEM, read-out: IC50 (mean ± of determinations, in parentheses), Table 5
[8] = dose 0.2 i.p. QD d7-10,14,15, day 12
[9] = dose 0.2 i.p. QD d7-10,14,15, day 17
[10] = dose 0.2 i.p. QD d7-10,14,15, day 22
[11] = dose 0.4 i.p. QD d7-10,14,15, day 12
[12] = dose 0.4 i.p. QD d7-10,14,15, day 17
[13] = dose 0.4 i.p. QD d7-10,14,15, day 22

CC[C@]1(O)C[C@@H]2CN(CCc3c([nH]c4ccccc34)[C@@](C(=O)OC)(c3cc4c(cc3OC)N(C)[C@H]3[C@@](O)(C(=O)OC)[C@H](OC(C)=O)[C@]5(CC)C=CCN6CC[C@]43[C@@H]65)C2)C1 [Vinblastine, Vinblastine sulfate]
IC50 ([1]; Homo sapiens, CCRF-CEM): 0.63 nM | IC50 [1, 5]: 6.3 nM | IC50 ([1]; Homo sapiens, CCRF-CEM, Table 2): 0.68 nM | IC50 [1, 6]: 0.8 nM | IC50 [1, 7]: 0.63 nM | IC50 ([1]; Table 5, single determinations): 0.6 nM and 0.5 nM | IC50 (DC-3F/ADX): 1070 nM | Average Body Weight (change), Day 13 [2]: +2.3 g | Average Body Weight (change), Day 15 [2]: +3.2 g | Tumor Disappearance [2]: 2/3 | Average Tumor Size, Day 11 ([2]; control 96): 11 mm^3 | Average Tumor Size, Day 13 ([2]; control 128): 11 mm^3 | Average Tumor Size, Day 15 ([2]; control 306): 11 mm^3 | Average Tumor Size, Day 17 ([2]; control 553): 7 mm^3 | Average Body Weight, Day 7 ([2]; initial weight): 25.5 g | IC50 (CCRF-CEM/VM1; [5]): 0.41 nM | IC50 (CCRF-CEM/VM1; Homo sapiens, CCRF-CEM, Table 2, CCR-CEM/VM-1): 0.68 nM | IC50 (CCRF-CEM/VM1; [6]): 0.49 nM | IC50 (CCRF-CEM/VM1; [7]): 0.41 nM | IC50 (CCRF-CEM/VM1; Table 5, single determinations): 0.39 nM and 0.36 nM | Average Body Weight (change), Day 9 [3]: +1.4 g | Average Body Weight (change), Day 11 [3]: +2.1 g | Average Body Weight (change), Day 13 [3]: +3.0 g | Average Tumor Size (TC), Day 9 [3]: 0.37 TC | Average Tumor Size (TC), Day 11 [3]: 0.13 TC | Average Tumor Size (TC), Day 13 [3]: 0.03 TC | Tumor Disappearance [3]: 1/3 | Average Body Weight, Day 5 ([3]; initial weight): 23.5 g | Average weight change ([4]; dose 0.2 i.p. QD d7-10,14,15, day 7): −0.3 | Average tumor volume (control = 1.00) [4, 8]: 0.86 | Average weight change [4, 8]: −0.8 | Average tumor volume (control = 1.00) [4, 9]: 0.66 | Average weight change [4, 9]: −1.4 | Average tumor volume (control = 1.00) [4, 10]: 0.67 | Average weight change [4, 10]: −0.3 | Average weight change ([4]; dose 0.4 i.p. QD d7-10,14,15, day 7): 0 | Average tumor volume (control = 1.00) [4, 11]: 1.02 | Average weight change [4, 11]: −1.2 | Average tumor volume (control = 1.00) [4, 12]: 0.57 | Average weight change [4, 12]: −1.8 | Average tumor volume (control = 1.00) [4, 13]: 0.62 | Average weight change [4, 13]: −0.5

Source: patent US6603023B2 (priority 1996, dated 2003)
